In brackets after ≈: the same amount, converted by molar mass.
What was measured:
[1] = test system: STAPH AUREUS 604; assay: Tube Dilution Assay, STAPH AUREUS 604; format: cell-based; details: Staphylococcus aureus; read-out: Tube Dilution Assay, gram positive, STAPH AUREUS 604
[2] = test system: STAPH AUREUS 663; assay: Tube Dilution Assay, STAPH AUREUS 663; format: cell-based; details: Staphylococcus aureus; read-out: Tube Dilution Assay, gram positive, STAPH AUREUS 663
[3] = test system: STAPH AUREUS 3452; assay: Tube Dilution Assay, STAPH AUREUS 3452; format: cell-based; details: Staphylococcus aureus; read-out: Tube Dilution Assay, gram positive, STAPH AUREUS 3452
[4] = test system: STAPH AUREUS 11127; assay: Tube Dilution Assay, STAPH AUREUS 11127; format: cell-based; details: Staphylococcus aureus; read-out: Tube Dilution Assay, gram positive, STAPH AUREUS 11127
[5] = test system: E. COLI 573; assay: Tube Dilution Assay, E. COLI 573; format: cell-based; details: Escherichia coli; read-out: Tube Dilution Assay, gram negative, E. COLI 573
[6] = test system: S. TYPHIMURIUM 804; assay: Tube Dilution Assay, S. TYPHIMURIUM 804; format: cell-based; details: Salmonella enterica, read-out: Tube Dilution Assay, gram negative, S. TYPHIMURIUM 804
[7] = test system: PR. MIRABILIS 431; assay: Tube Dilution Assay, PR. MIRABILIS 431; format: cell-based; details: Proteus mirabilis; read-out: Tube Dilution Assay, gram negative, PR. MIRABILIS 431
[8] = test system: STAPH AUREUS 11127; assay: Mouse Protection, STAPH AUREUS 11127; format: in vivo; details: Staphylococcus aureus
[9] = R.O.U.R.: recovery of the antibiotic from the urine of female rats following oral administration; format: in vivo; details: rat
Text: *R.O.U.R. = % recovery of the antibiotic from the urine of female rats
following oral administration of the antibiotic.

[10] = test system: gram-positive and gram-negative organisms; assay: in vitro antibacterial tests; format: cell-based
[11] = animal tests of degradation in vivo
[12] = absorption and blood levels by the oral route; format: in vivo
[13] = activity on oral administration; format: in vivo

SMILES | MIC [1] | MIC [2] | MIC [3] | MIC [4] | MIC [5] | MIC [6] | MIC [7] | ED50 [8] | dose excreted [9] | activity against gram-positive and gram-negative organisms [10] | degradation in vivo [11] | absorption by the oral route [12] | blood levels [12] | activity on oral administration [13]
CCC1=C(C(=O)O)N2C(=O)[C@@H](NC(=O)[C@H](N)c3ccccc3)[C@H]2SC1.O=C(O)C(F)(F)F [1(d), 7β-(D-2-Amino-2-phenylacetamido)-3-ethylceph-3-em-4-carboxylic acid, Trifluoroacetic Acid Salt] | 1.6 µg/mL | 0.3 µg/mL | 1.6 µg/mL | 0.08 µg/mL | 8 µg/mL | 16 µg/mL | 16 µg/mL | < 6 mg/kg | 45% |  |  |  |  | 
N#CCCC1=C(C(=O)O)N2C(=O)[C@@H](NC(=O)Cc3cccs3)[C@H]2SC1 [2(c), 3-(2-Cyanoethyl)-7β-(2-thienylacetamido)ceph-3-em-4-carboxylic acid] | 1.25 µg/mL (≈ 3.31 µM) | 0.08 µg/mL (≈ 0.212 µM) | 4 µg/mL (≈ 10.6 µM) | 1 µg/mL (≈ 2.65 µM) | 62 µg/mL (≈ 164 µM) | 16 µg/mL (≈ 42.4 µM) | 31 µg/mL (≈ 82.1 µM) |  | 2.1% |  |  |  |  | 
CCC1=C(C(=O)O)N2C(=O)[C@@H](NC(=O)[C@H](N)c3ccccc3)[C@H]2SC1 [Example 4(b), 7β-(D-2-Amino-2-phenylacetamido)-3-ethylceph-3-em-4-carboxylic acid] |  |  |  |  |  |  |  |  |  | active against gram-positive and gram-negative organisms | substantially resistant to degradation in vivo | well absorbed | good blood levels | appreciable level of activity
